Assay results published in the supplement of paper PMC11061612.

What was measured:
[1] = compound: COc1cccc2c1C(=O)c1c(O)c3c(c(O)c1C2=O)C[C@@](O)(C(=O)CO)C[C@@H]3O[C@H]1C[C@H](N)[C@H](O)[C@H](C)O1 [Doxorubicin]; conditions: max 1 µM
In short: (§1)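 After 24 hours at 37°C and 5% CO2 in 1536-well plates holding 7.5 μl of DMEM/F12 or RPMI with 10% FBS, cancer cell lines were dosed for 72 hours, with final DMSO typically 0.2%. Viability came from CellTiter-Glo 2.0 luminescence, scaled between the means of blank wells and DMSO wells. A non-linear mixed effects model fitted a two-parameter logistic curve to each dose response to give the single-agent IC50.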

[2] = compound: CC1(C)CCC(CN2CCN(c3ccc(C(=O)NS(=O)(=O)c4ccc(NCC5CCOCC5)c([N+](=O)[O-])c4)c(Oc4cnc5[nH]ccc5c4)c3)CC2)=C(c2ccc(Cl)cc2)C1 [Venetoclax]; conditions: max 1 µM
In short: as §1

[3] = compound: Cn1cnc2c(F)c(Nc3ccc(Br)cc3Cl)c(C(=O)NOCCO)cc21 [Selumetinib]; conditions: max 10 µM
In short: as §1

[4] = compound: Nc1ccn([C@@H]2O[C@H](CO)[C@@H](O)C2(F)F)c(=O)n1 [Gemcitabine]; conditions: max 0.3 µM
In short: as §1

[5] = compound: C1CN(CCC1(C(=O)N[C@@H](CCO)C2=CC=C(C=C2)Cl)N)C3=NC=NC4=C3C=CN4 [AZD5363]; conditions: max 10 µM
In short: as §1

[6] = compound: Cc1c2c(nn1C)CSCc1cc(n(C)n1)CSc1cc(c3ccccc3c1)OCCCc1c(C(=O)O)n(C)c3c-2c(Cl)ccc13 [AZD5991]; conditions: max 1 µM
In short: as §1

[7] = compound: Cc1nc(-c2cn3c(n2)-c2ccc(-c4cnn(C(C)(C)C(N)=O)c4)cc2OCC3)n(C(C)C)n1 [Taselisib]; conditions: max 10 µM
In short: as §1

[8] = compound: COc1cc2ncnc(Nc3ccc(F)c(Cl)c3)c2cc1OCCCN1CCOCC1 [Gefitinib]; conditions: max 10 µM
In short: as §1

[9] = compound: C[C@@H]1COCCN1C2=NC(=NC(=C2)C3(CC3)[S@](=N)(=O)C)C4=C5C=CNC5=NC=C4 [AZD6738]; conditions: max 10 µM
In short: as §1

[10] = compound: CN(CC[C@H](CSC1=CC=CC=C1)NC2=C(C=C(C=C2)S(=O)(=O)NC(=O)C3=CC=C(C=C3)N4CCC(CC4)[C@H](C5=CC=CC=C5C6=CC=C(C=C6)Cl)O)S(=O)(=O)C(F)(F)F)CCO [AZD4320]; conditions: max 1 µM
In short: as §1

[11] = compound: CC(=O)Nc1cccc(-n2c(=O)n(C3CC3)c(=O)c3c(Nc4ccc(I)cc4F)n(C)c(=O)c(C)c32)c1 [Trametinib]; conditions: max 1 µM
In short: as §1

[12] = compound: C[C@@H](Oc1cc(-c2cnn(C3CCNCC3)c2)cnc1N)c1c(Cl)ccc(F)c1Cl [Crizotinib]; conditions: max 10 µM
In short: as §1

[13] = compound: C[C@@H](c1ccc2nccn2c1)n1nnc2ncc(-c3cnn(C)c3)nc21 [Savolitinib]; conditions: max 1 µM
In short: as §1

[14] = compound: CC(C)n1c(=O)n(C)c2cnc3cc(F)c(-c4ccc(OCCCN5CCCCC5)nc4)cc3c21 [AZD1390]; conditions: max 0.3 µM
In short: as §1

[15] = compound: C[C@@H](Nc1cc(F)cc(F)c1)c1cc(C(=O)N(C)C)cc2c(=O)cc(N3CCOCC3)oc12 [AZD8186]; conditions: max 10 µM
In short: as §1

[16] = compound: COc1nnc2ccc(N3CCC(c4ccc(OCCN5CCN(C)C(=O)[C@H]5C)cc4)CC3)nn12 [AZD5153]; conditions: max 1 µM
In short: as §1

[17] = compound: Cc1cc2ncnn2cc1Nc1ncc2c(n1)n(C1CCOCC1)c(=O)n2C [AZD7648]; conditions: max 10 µM
In short: as §1

[18] = compound: COc1cc([C@@H]2c3cc4c(cc3[C@@H](O[C@@H]3O[C@@H]5CO[C@@H](C)O[C@H]5[C@H](O)[C@H]3O)[C@H]3COC(=O)[C@H]23)OCO4)cc(OC)c1O [Etoposide]; conditions: max 10 µM
In short: as §1

[19] = compound: CS(=O)(=O)CCNCc1ccc(-c2ccc3ncnc(Nc4ccc(OCc5cccc(F)c5)c(Cl)c4)c3c2)o1 [Lapatinib]; conditions: max 10 µM
In short: as §1

[20] = compound: O=C(Nc1ccc2[nH]nc(-c3ccncc3)c2c1)[C@@H]1CCN(CC(=O)N2CCN(c3ccc(-c4ncccn4)cc3)CC2)C1; conditions: max 5 µM
In short: as §1

[21] = compound: O=C(c1cc(Cc2n[nH]c(=O)c3ccccc23)ccc1F)N1CCN(C(=O)C2CC2)CC1 [Olaparib]; conditions: max 10 µM
In short: as §1

[22] = compound: CC1=C(C(=CC=C1)Cl)NC(=O)C2=CN=C(S2)NC3=CC(=NC(=N3)C)N4CCN(CC4)CCO [Dasatinib]; conditions: max 2 µM
In short: as §1

[23] = compound: CN(C)CCCOc1ccc(-c2ccc3ncc4c(c3c2)n(C2CCOCC2)c(=O)n4C)cn1 [AZD0156]; conditions: max 3 µM
In short: as §1

[24] = compound: COc1cccc(OCCCN)c1-c1cc(Nc2cnc(C#N)cn2)n[nH]1 [Prexasertib]; conditions: max 1 µM
In short: as §1

[25] = compound: O=c1[nH]cc(F)c(=O)[nH]1 [5-Fluorouracil]; conditions: max 20 µM
In short: as §1

[26] = compound: CC(=O)c1c(C)c2cnc(Nc3ccc(N4CCNCC4)cn3)nc2n(C2CCCC2)c1=O [Palbociclib]; conditions: max 10 µM
In short: as §1

[27] = compound: CCc1c2c(nc3ccc(O)cc13)-c1cc3c(c(=O)n1C2)COC(=O)[C@]3(O)CC [SN-38]; conditions: max 0.3 µM
In short: as §1

[28] = compound: C=CCn1c(=O)c2cnc(Nc3ccc(N4CCN(C)CC4)cc3)nc2n1-c1cccc(C(C)(C)O)n1 [AZD1775]; conditions: max 3 µM
In short: as §1

[29] = compound: C1CC(C1)(C(=O)[O-])C(=O)[O-].N.N.[Pt+2] [Carboplatin]; conditions: max 10 µM
In short: as §1

[30] = compound: NC1(c2ccc(-c3nc4ccn5c(=O)[nH]nc5c4cc3-c3ccccc3)cc2)CCC1 [MK-2206]; conditions: max 10 µM
In short: as §1

[31] = compound: CCN(CCO)CCCOc1ccc2c(Nc3cc(CC(=O)Nc4cccc(F)c4)[nH]n3)ncnc2c1 [AZD2811]; conditions: max 1 µM
In short: as §1

[32] = compound: CC(=O)O[C@H]1C(=O)[C@@]2(C)[C@H]([C@H](OC(=O)c3ccccc3)[C@]3(O)C[C@H](OC(=O)[C@H](O)[C@@H](NC(=O)c4ccccc4)c4ccccc4)C(C)=C1C3(C)C)[C@]1(OC(C)=O)CO[C@@H]1C[C@@H]2O [Paclitaxel]; conditions: max 3 µM
In short: as §1

[33] = compound: N#Cc1cnc(Nc2cc(NC[C@H]3CNCCO3)c(C(F)(F)F)cn2)cn1 [SRA737]; conditions: max 10 µM
In short: as §1

[34] = compound: COc1cc(Nc2ncc3c(n2)-c2ccc(Cl)cc2C(c2c(F)cccc2OC)=NC3)ccc1C(=O)O [Alisertib]; conditions: max 10 µM
In short: as §1

[35] = compound: CC1=CN2[C@@H](C1)C=NC3=CC(=C(C=C3C2=O)OC)OCCCCCOC4=C(C=C5C(=C4)N=C[C@@H]6CC(=CN6C5=O)C)OC [SG3199]; conditions: max 0.001 µM
In short: as §1

Cell Line	IC50, cell viability 72 h [1] [nM]	IC50, cell viability 72 h [2] [nM]	IC50, cell viability 72 h [3] [µM]	IC50, cell viability 72 h [4] [nM]	IC50, cell viability 72 h [5] [µM]	IC50, cell viability 72 h [6] [nM]	IC50, cell viability 72 h [7] [µM]	IC50, cell viability 72 h [8] [µM]	IC50, cell viability 72 h [9] [µM]	IC50, cell viability 72 h [10] [nM]	IC50, cell viability 72 h [11] [nM]	IC50, cell viability 72 h [12] [µM]	IC50, cell viability 72 h [13] [nM]	IC50, cell viability 72 h [14] [nM]	IC50, cell viability 72 h [15] [µM]	IC50, cell viability 72 h [16] [nM]	IC50, cell viability 72 h [17] [µM]	IC50, cell viability 72 h [18] [µM]	IC50, cell viability 72 h [19] [µM]	IC50, cell viability 72 h [20] [µM]	IC50, cell viability 72 h [21] [µM]	IC50, cell viability 72 h [22] [nM]	IC50, cell viability 72 h [23] [nM]	IC50, cell viability 72 h [24] [nM]	IC50, cell viability 72 h [25] [µM]	IC50, cell viability 72 h [26] [µM]	IC50, cell viability 72 h [27] [nM]	IC50, cell viability 72 h [28] [nM]	IC50, cell viability 72 h [29] [µM]	IC50, cell viability 72 h [30] [µM]	IC50, cell viability 72 h [31] [nM]	IC50, cell viability 72 h [32] [nM]	IC50, cell viability 72 h [33] [µM]	IC50, cell viability 72 h [34] [µM]	IC50, cell viability 72 h [35] [nM]
EW-11 (Ewing's Sarcoma)	212	> 1000	> 10	55.7	> 10	423	1	> 10	5.93	210	> 1000	5.63	> 1000	> 300	> 10	> 1000	> 10	4.16	> 10	> 5	> 10	> 2000	> 3000	62.2	> 20	> 10	8.46	> 3000	> 10	6.38	> 1000	35.6	> 10	> 10	> 1
GAMG (Glioblastoma)	237	> 1000	> 10	88.1	8.42	> 1000	3.59	> 10	> 10	> 1000	> 1000	> 10	> 1000	> 300	2.98	> 1000	> 10	4.44	> 10	> 5	> 10	1710	> 3000	82.9	> 20	> 10	55.5	1690	> 10	> 10	> 1000	7.35	> 10	2.46	> 1
HH (T-Cell Non-Hodgkin's Lymphoma)	> 1000	> 1000	> 10	> 300	> 10	341	> 10	> 10	> 10	> 1000	> 1000	> 10	> 1000	> 300	> 10	> 1000	> 10	> 10	> 10	> 5	> 10	> 2000	> 3000	186	> 20	> 10	> 300	> 3000	> 10	> 10	> 1000	> 3000	> 10	> 10	> 1
HuCCT1 (Biliary Tract Carcinoma)	710	> 1000	6.72	> 300	> 10	> 1000	> 10	> 10	4.36	> 1000	314	> 10	> 1000	> 300	> 10	780	> 10	> 10	> 10	1.79	> 10	918	> 3000	35.4	> 20	> 10	184	583	> 10	> 10	> 1000	294	6.75	> 10	> 1
KS-1 (Glioblastoma)	> 1000	> 1000	> 10	> 300	> 10	> 1000	3.46	> 10	> 10	> 1000	927	> 10	> 1000	> 300	> 10	264	> 10	> 10	> 10	> 5	> 10	> 2000	> 3000	539	> 20	> 10	> 300	> 3000	> 10	> 10	> 1000	375	> 10	3.51	> 1
KYAE-1 (Esophageal Adenocarcinoma)	> 1000	> 1000	> 10	> 300	> 10	> 1000	1.88	4.58	> 10	> 1000	> 1000	> 10	> 1000	> 300	> 10	> 1000	> 10	> 10	3.34	> 5	> 10	> 2000	> 3000	829	> 20	> 10	> 300	> 3000	> 10	> 10	> 1000	> 3000	> 10	> 10	> 1
LNZTA3WT4 (Low Grade Glioma)	> 1000	> 1000	> 10	99.7	> 10	> 1000	> 10	> 10	4.5	> 1000	> 1000	> 10	> 1000	> 300	> 10	> 1000	> 10	> 10	> 10	> 5	> 10	> 2000	> 3000	18.7	> 20	> 10	269	624	> 10	> 10	> 1000	141	4.63	> 10	> 1
LOXIMVI (Melanoma)	294	> 1000	1.5	58.9	> 10	> 1000	2.17	> 10	3.27	> 1000	17.8	6.35	> 1000	> 300	> 10	111	> 10	> 10	> 10	0.145	> 10	135	> 3000	89.6	> 20	9.91	28.9	1370	> 10	> 10	> 1000	26.8	> 10	5.35	> 1
MPP-89 (Mesothelioma)	> 1000	> 1000	> 10	> 300	> 10	> 1000	> 10	> 10	> 10	> 1000	> 1000	> 10	> 1000	> 300	> 10	> 1000	> 10	> 10	> 10	> 5	> 10	558	> 3000	67.2	> 20	> 10	172	1550	> 10	> 10	> 1000	842	> 10	9.37	> 1
NCI-H524 (Small Cell Lung Carcinoma)	> 1000	> 1000	> 10	189	> 10	> 1000	8.08	> 10	4.37	415	> 1000	2.55	> 1000	> 300	> 10	278	> 10	> 10	> 10	> 5	> 10	> 2000	> 3000	23.6	> 20	> 10	133	974	> 10	> 10	22.3	3.26	> 10	0.0305	> 1
